These results are taken from patent publication US20250289789A1, “REVERSIBLE LYSINE COVALENT MODIFIERS OF CDK2 AND USES THEREOF” (Terremoto Biosciences, Inc., priority 2023, published 2025).

Like-named read-outs stand apart in the source and are kept apart here.

Holding throughout (type): cell-based
Assay [1] relates to Phospho-Rb Ser807/811 in OVCAR3 cells. Briefly: OVCAR3 Phospho-Rb Ser807/811 HTRF assay. Particulars: Homo sapiens, OVCAR3 cells, Phospho-Rb Ser807/811 HTRF, 1 hour incubation, read-out: pRb-OVCAR3 IC50. As for the experimental part: Cells were trypsinized and resuspended in 1 mM hydroxyurea (Sigma; H8627), 90% RPMI and 10% fetal bovine serum. […] Dose response curve normalized to DMSO control was plotted using four-parameter logistic model for IC50 calculation.

Assay [2] has as its target T1, CDK4-NanoLuc fusion with CCND1 in 293T or 293 cells (Homo sapiens, UniProt P11802).
T1 construct: host or cells: 293T (ATCC CRL-3216) or 293 (ATCC CRL-1573)
The assay can be described thus: NanoBRET Target Engagement (TE) Intracellular Kinase Assay, CDK4/CCND1. Particulars: 2-hour incubation.

Assay [3] addresses T2, CDK2-NanoLuc fusion with CCNE1 in 293T or 293 cells (Homo sapiens, UniProt P24941).
T2 construct: host or cells: 293T (ATCC CRL-3216) or 293 (ATCC CRL-1573)
The assay can be described thus: NanoBRET Target Engagement (TE) Intracellular Kinase Assay, CDK2/CCNE1. Particulars: 2-hour incubation.

Assay [4] has as its target T3, CDK1-NanoLuc fusion with CCNB1 in 293T or 293 cells (Homo sapiens, UniProt P06493).
T3 construct: host or cells: 293T (ATCC CRL-3216) or 293 (ATCC CRL-1573)
Briefly: NanoBRET Target Engagement (TE) Intracellular Kinase Assay, CDK1/CCNB1. As to conditions: 2-hour incubation. In short, it runs like this:
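293T or 293 cells co-transfected with CDK1-NanoLuc and CCNB1 vectors, incubated 24 h, then exposed to NanoBRET Tracer K-10 plus compound for 2 h at 37° C. BRET ratio (610/450 nm) normalized to DMSO; IC50 from four-parameter logistic fit.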

Setting [5] is: NanoBRET TE intracellular kinase assay, read-out: NanoBRET-CDK4/D1 IC50.
Setting [6] is: NanoBRET TE intracellular kinase assay, read-out: NanoBRET-CDK2/E1 IC50.
The mark [7] stands for this setting: NanoBRET TE intracellular kinase assay, read-out: NanoBRET-CDK1/B1 IC50.

T1 sequence (P11802 whole entry, the tested form may be a part): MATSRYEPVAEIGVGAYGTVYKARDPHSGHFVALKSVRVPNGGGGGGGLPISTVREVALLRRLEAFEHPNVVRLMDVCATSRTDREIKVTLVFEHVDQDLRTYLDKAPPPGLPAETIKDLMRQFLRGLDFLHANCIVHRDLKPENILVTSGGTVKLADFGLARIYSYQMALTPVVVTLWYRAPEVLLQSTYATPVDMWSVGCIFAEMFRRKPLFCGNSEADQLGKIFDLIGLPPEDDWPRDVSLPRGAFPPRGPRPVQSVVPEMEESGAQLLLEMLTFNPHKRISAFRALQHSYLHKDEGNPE
T1 sequence (P24385 whole entry partner, the tested form may be a part): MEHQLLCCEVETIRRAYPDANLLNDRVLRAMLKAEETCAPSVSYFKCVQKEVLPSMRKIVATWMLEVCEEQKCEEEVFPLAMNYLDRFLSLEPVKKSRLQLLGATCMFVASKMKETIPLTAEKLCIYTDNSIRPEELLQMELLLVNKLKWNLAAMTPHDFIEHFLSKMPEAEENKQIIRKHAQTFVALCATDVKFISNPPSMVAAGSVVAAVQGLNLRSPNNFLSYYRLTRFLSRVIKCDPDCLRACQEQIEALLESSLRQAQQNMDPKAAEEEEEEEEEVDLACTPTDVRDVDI
T3 sequence (P06493 whole entry, the tested form may be a part): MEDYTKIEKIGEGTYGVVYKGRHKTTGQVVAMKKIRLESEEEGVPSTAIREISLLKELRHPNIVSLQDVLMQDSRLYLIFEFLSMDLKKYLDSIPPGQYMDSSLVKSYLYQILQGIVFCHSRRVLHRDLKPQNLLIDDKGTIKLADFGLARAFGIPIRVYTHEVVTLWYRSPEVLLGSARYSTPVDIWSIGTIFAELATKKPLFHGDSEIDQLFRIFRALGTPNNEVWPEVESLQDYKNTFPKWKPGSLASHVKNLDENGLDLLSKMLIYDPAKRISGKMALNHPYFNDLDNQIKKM
T3 sequence (P14635 whole entry partner, the tested form may be a part): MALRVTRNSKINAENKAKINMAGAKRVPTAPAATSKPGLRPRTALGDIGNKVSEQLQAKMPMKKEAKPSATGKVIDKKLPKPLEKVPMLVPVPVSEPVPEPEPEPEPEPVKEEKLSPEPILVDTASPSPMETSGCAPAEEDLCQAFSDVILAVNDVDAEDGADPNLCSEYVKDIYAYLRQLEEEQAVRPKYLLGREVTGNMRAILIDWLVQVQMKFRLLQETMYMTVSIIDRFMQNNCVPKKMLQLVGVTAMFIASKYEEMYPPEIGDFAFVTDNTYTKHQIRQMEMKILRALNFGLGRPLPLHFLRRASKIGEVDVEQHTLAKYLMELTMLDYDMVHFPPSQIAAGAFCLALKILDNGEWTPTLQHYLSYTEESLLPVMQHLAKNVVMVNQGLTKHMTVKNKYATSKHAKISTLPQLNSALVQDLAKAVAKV

Consider `COc1cc(OC)c(C=O)c(OCC(=O)Nc2cc([C@H]3C[C@@H](OC(=O)N4C5COCC4C5)C3)[nH]n2)c1` [Compound 108, (1s,3s)-3-(3-(2-(2-formyl-3,5-dimethoxyphenoxy)acetamido)-1H-pyrazol-5-yl)cyclobutyl 3-oxa-6-azabicyclo[3.1.1]heptane-6-carboxylate], for which the IC50 in assay [1] (OVCAR-3, 1 h) is 44.4 nM; in assay [2] (setting [5]) it was above 10 µM; in assay [3] (setting [6]), 3.65 nM; in assay [4] (setting [7]), 15.2 nM.
For the molecule `COc1cc(OC)c(C=O)c(OCC(=O)Nc2cc([C@H]3C[C@@H](OC(=O)N4CCC4(C)C)C3)[nH]n2)c1` [Compound 109, (1s,3s)-3-(3-(2-(2-formyl-3,5-dimethoxyphenoxy)acetamido)-1H-pyrazol-5-yl)cyclobutyl 2,2-dimethylazetidine-1-carboxylate], the IC50 in assay [1] (OVCAR-3, 1 h) turned out to be 17.6 nM; in assay [2] (setting [5]), 4.37 µM; in assay [3] (setting [6]), 1.85 nM; in assay [4] (setting [7]), 4.14 nM.
For `CCCNC(=O)O[C@H]1C[C@@H](c2cc(NC(=O)COc3cc(OC)cc(OC)c3C=O)n[nH]2)C1` [Compound 110, (1s,3s)-3-(3-(2-(2-formyl-3,5-dimethoxyphenoxy)acetamido)-1H-pyrazol-5-yl)cyclobutyl propylcarbamate], the IC50 in assay [1] (OVCAR-3, 1 h) is 27.7 nM; in assay [2] (setting [5]) it was 5.36 µM; in assay [3] (setting [6]), 2.9 nM; in assay [4] (setting [7]) it was 7.64 nM.
For `COc1cc(O)c(C=O)c(OCC(=O)Nc2cc([C@H]3C[C@@H](OC(=O)N4C5COCC4C5)C3)[nH]n2)c1` [Compound 111, (1s,3s)-3-(3-(2-(2-formyl-3-hydroxy-5-methoxyphenoxy)acetamido)-1H-pyrazol-5-yl)cyclobutyl 3-oxa-6-azabicyclo[3.1.1]heptane-6-carboxylate], in that order: 79.8 nM, above 10 µM, 5.45 nM and 21 nM.
On the same counts, the results for `COc1cc(O)c(C=O)c(OCC(=O)Nc2cc([C@H]3C[C@@H](OC(=O)N4CCCC4)C3)[nH]n2)c1` [Compound 112, (1s,3s)-3-(3-(2-(2-formyl-3-hydroxy-5-methoxyphenoxy)acetamido)-1H-pyrazol-5-yl)cyclobutyl pyrrolidine-1-carboxylate] are 149 nM, above 10 µM, 4.69 nM and 36 nM.
On the same counts, the results for `COc1cc(O)c(C=O)c(OCC(=O)Nc2cc([C@H]3C[C@@H](OC(=O)NC(C)C)C3)[nH]n2)c1` [Compound 113, (1s,3s)-3-(3-(2-(2-formyl-3-hydroxy-5-methoxyphenoxy)acetamido)-1H-pyrazol-5-yl)cyclobutyl isopropylcarbamate] are 61.6 nM, above 10 µM, 4.13 nM and 11.4 nM.
As to `CC(C)NC(=O)O[C@H]1C[C@@H](c2cc(NC(=O)COc3cccc(O)c3C=O)n[nH]2)C1` [Compound 114, (1s,3s)-3-(3-(2-(2-formyl-3-hydroxyphenoxy)acetamido)-1H-pyrazol-5-yl)cyclobutyl isopropylcarbamate], the IC50 in assay [1] (OVCAR-3, 1 h) was 121 nM; in assay [2] (setting [5]), above 10 µM; in assay [3] (setting [6]) it was 4.44 nM; in assay [4] (setting [7]), 26.7 nM.
On the same counts, the results for `COc1cc(O)c(C=O)c(OCC(=O)Nc2cc([C@H]3CC[C@@H](OC(=O)NC(C)(C)C)C3)[nH]n2)c1` [Compound 128, (1R,3S)-3-(3-(2-(2-formyl-3-hydroxy-5-methoxyphenoxy)acetamido)-1H-pyrazol-5-yl)cyclopentyl tert-butylcarbamate] are 34.8 nM, 0.961 µM, 2.42 nM and 5.09 nM.
On the same counts, the results for `COc1cc(O)c(C=O)c(OCC(=O)Nc2cc([C@H]3CC[C@@H](OC(=O)N[C@H]4C[C@H]4F)C3)[nH]n2)c1` [Compound 132] are 22 nM, 2.94 µM, 3.39 nM and 10.8 nM.
For `COc1cc(O)c(C=O)c(OCC(=O)Nc2cc([C@H]3CC[C@@H](OC(=O)N(C)N(C)C)C3)[nH]n2)c1` [Compound 172, (1R,3S)-3-(3-(2-(2-formyl-3-hydroxy-5-methoxyphenoxy)acetamido)-1H-pyrazol-5-yl)cyclopentyl 1,2,2-trimethylhydrazine-1-carboxylate], the IC50 in assay [1] (OVCAR-3, 1 h) is 132 nM; in assay [2] (setting [5]) it was above 10 µM; in assay [3] (setting [6]), 3.95 nM; in assay [4] (setting [7]), 25.2 nM.
As to `Cc1cc(O)c(C=O)c(OCC(=O)Nc2cc([C@H]3CC[C@@H](OC(=O)N4C5COCC4C5)C3)[nH]n2)c1` [Compound 199], the IC50 in assay [1] (OVCAR-3, 1 h) came out at 58.5 nM; in assay [2] (setting [5]), 6.5 µM; in assay [3] (setting [6]), 3.76 nM; in assay [4] (setting [7]), 19.9 nM.
On the same counts, the results for `COC[C@H](C)NC(=O)O[C@@H]1CC[C@H](c2cc(NC(=O)COc3cc(OC)cc(O)c3C=O)n[nH]2)C1` [Compound 200] are 27.7 nM, 8.41 µM, 5.07 nM and 8.83 nM.
On the same counts, the results for `COc1cc(O)c(C=O)c(OCC(=O)Nc2cc([C@H]3CC[C@@H](OC(=O)N4[C@H](C)COC[C@@H]4C)C3)[nH]n2)c1` [Compound 201] are 28.4 nM, 4.68 µM, 4.1 nM and 12.9 nM.
On the same counts, the results for `COc1cc(O)c(C=O)c(OCC(=O)Nc2cc([C@H]3CC[C@@H](OC(=O)NC[C@@H](C)OC)C3)[nH]n2)c1` [Compound 202] are 70.5 nM, above 10 µM, 5.67 nM and 41.6 nM.
As to `COc1cc(O)c(C=O)c(OCC(=O)Nc2cc([C@H]3CC[C@@H](OC(=O)N4C[C@H]5C[C@@H]4CO5)C3)[nH]n2)c1` [Compound 203], the IC50 in assay [1] (OVCAR-3, 1 h) is 60 nM; in assay [2] (setting [5]), above 10 µM; in assay [3] (setting [6]) it was 7.37 nM; in assay [4] (setting [7]), 18.6 nM.
For `COc1cc(O)c(C=O)c(OCC(=O)Nc2cc([C@H]3CC[C@@H](OC(=O)N4C[C@@H]5C[C@H]4CO5)C3)[nH]n2)c1` [Compound 204], in that order: 34.6 nM, above 9.51 µM, 4.54 nM and 12.2 nM.
On to `COc1cc(O)c(C=O)c(OCC(=O)Nc2cc([C@H]3CC[C@@H](OC(=O)N4CCOCC45CC5)C3)[nH]n2)c1` [Compound 205], for which the IC50 came to 26.3 nM in assay [1] (OVCAR-3, 1 h); 2.04 µM in assay [2] (setting [5]); 3.48 nM in assay [3] (setting [6]); 4.59 nM in assay [4] (setting [7]).
Regarding `COc1cc(O)c(C=O)c(OCC(=O)Nc2cc([C@H]3CC[C@@H](OC(=O)N4CCOC[C@H]4C)C3)[nH]n2)c1` [Compound 206], the IC50 is 27.4 nM in assay [1] (OVCAR-3, 1 h); above 10 µM in assay [2] (setting [5]); 2.46 nM in assay [3] (setting [6]); 5.62 nM in assay [4] (setting [7]).
Take `COc1cc(O)c(C=O)c(OCC(=O)Nc2cc([C@H]3CC[C@@H](OC(=O)N4C5CCC4COC5)C3)[nH]n2)c1` [Compound 207, (1R,3S)-3-{5-[2-(2-formyl-3-hydroxy-5-methoxyphenoxy)acetamido]-2H-pyrazol-3-yl}cyclopentyl 3-oxa-8-azabicyclo[3.2.1]octane-8-carboxylate]: the IC50 stood at 25.7 nM in assay [1] (OVCAR-3); 4.13 µM in assay [2] (NanoBRET-CDK4/D1 IC50, NanoBRET TE intracellular kinase assay); 2.25 nM in assay [3] (NanoBRET-CDK2/E1 IC50, NanoBRET TE intracellular kinase assay); 6.54 nM in assay [4] (NanoBRET-CDK1/B1 IC50, NanoBRET TE intracellular kinase assay).
Consider `COc1cc(O)c(C=O)c(OCC(=O)Nc2cc([C@H]3CC[C@@H](OC(=O)NCCC#N)C3)[nH]n2)c1` [Compound 208], for which the IC50 stood at 41.8 nM in assay [1] (OVCAR-3, 1 h); 7.91 µM in assay [2] (setting [5]); 9.87 nM in assay [3] (setting [6]); 21.2 nM in assay [4] (setting [7]).
For `COCC1(NC(=O)O[C@@H]2CC[C@H](c3cc(NC(=O)COc4cc(OC)cc(O)c4C=O)n[nH]3)C2)CC1` [Compound 209], in that order: 28.7 nM, 3.87 µM, 6.55 nM and 5.94 nM.
On the same counts, the results for `COCCOCCNC(=O)O[C@@H]1CC[C@H](c2cc(NC(=O)COc3cc(OC)cc(O)c3C=O)n[nH]2)C1` [Compound 210] are 68.5 nM, above 10 µM, 6.9 nM and 26.3 nM.
On the same counts, the results for `CCOc1cc(O)c(C=O)c(OCC(=O)Nc2cc([C@H]3CC[C@@H](OC(=O)N4CCC4(C)C)C3)[nH]n2)c1` [Compound 211, (1R,3S)-3-(3-(2-(5-ethoxy-2-formyl-3-hydroxyphenoxy)acetamido)-1H-pyrazol-5-yl)cyclopentyl 2,2-dimethylazetidine-1-carboxylate] are 34.5 nM, 2.12 µM, 2.68 nM and 9.01 nM.
